Measured values published in patent US20240228493A1, “LRRK2 INHIBITORS AND USES THEREOF” (NEURON23, ICN., priority 2022, published 2024).

Tests used:
[1] = target: T1, wt human LRRK2, catalytic site (Homo sapiens, UniProt Q5S007); experiment: TR-FRET LanthaScreen Tb Kinase Activity Assay, LRRK2 inhibition; format: biochemical; details: 2 nM wt human LRRK2, 400 nM peptide, 38 μM ATP
T1 construct: wt human LRRK2, catalytic site, catalytic site (ThermoFisher/USA); purchased ThermoFisher
Outline: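 Fluorescein-ERM (LRRKtide) peptide (400 nM) phosphorylated by 2 nM wt human LRRK2 catalytic site with 38 μM ATP in 1× Kinase Buffer A, 120 min at room temperature after 15 min compound–kinase preincubation. EDTA plus Tb-anti-pLRRKtide antibody added, read after 60 min; inhibition from TR-FRET emission ratios.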

Caco-2 cells = experiment: Caco-2 bidirectional permeability; format: in vitro ADME; details: for Caco-2 ER: Efflux Ratio=Papp(BA)/Papp(AB); for Caco-2 A2B (10^−6 cm/s): apical to basolateral; for Caco-2 A2B (10^−6 cm/s) / Caco-2 B2A (10^−6 cm/s): 2 hours, pH 7.4; for Caco-2 B2A (10^−6 cm/s): basolateral to apical
Outline: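 Caco-2 monolayers were grown 21–28 days on PET inserts and run in duplicate in HBSS with 10 mM HEPES, pH 7.4. Test compound was dosed bidirectionally at […] for 2 h at 37 °C; quantification was by LC-MS/MS. Papp and efflux ratio (B-A/A-B) were calculated, with lucifer yellow monolayer integrity checks.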

[2] = Human liver microsomal clearance (hLM Cl); format: in vitro ADME; details: values marked *: human liver microsomal Clearance

T1 sequence (Q5S007 1879-2138 limits assumed): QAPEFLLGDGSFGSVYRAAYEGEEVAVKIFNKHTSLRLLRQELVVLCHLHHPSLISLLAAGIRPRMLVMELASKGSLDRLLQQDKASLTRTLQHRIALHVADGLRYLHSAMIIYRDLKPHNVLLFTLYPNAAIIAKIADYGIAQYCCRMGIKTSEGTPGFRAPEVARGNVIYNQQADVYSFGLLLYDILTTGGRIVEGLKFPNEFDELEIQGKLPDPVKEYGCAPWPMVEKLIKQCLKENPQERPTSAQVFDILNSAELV

IC50 [1]	Caco-2 ER (Caco-2 cells)	Caco-2 B2A (10^−6 cm/s) (Caco-2 cells)	Structure (SMILES)	Caco-2 A2B (10^−6 cm/s) (Caco-2 cells)	hLM Cl (mL/min/kg) [2]
< 1 nM	L (L (Likely)”: ER≥2.5)	H (H (High permeability)”: A2B (B2A)>5)	Cc1n[nH]c2c1N=C(c1c(F)cccc1F)Nc1cnc(N3CCC[C@@](C)(C#N)C3)cc1-2 (single isomer, unassigned) [Example 12]	M (M (Moderate permeability)”: 1≤A2B (B2A)≤5)	L* (L (Low Cl)”: Hep Cl (mL/min/kg)<6.3)
< 1 nM	L (L (Likely)”: ER≥2.5)	H (H (High permeability)”: A2B (B2A)>5)	Fc1cccc(F)c1C1=Nc2cn[nH]c2-c2cc(N3CC[C@@H](C(F)F)C3)ncc2N1 (single isomer, unassigned) [Example 34]	M (M (Moderate permeability)”: 1≤A2B (B2A)≤5)	I* (I (Intermediate Cl)”: 6.3≤Hep Cl (mL/min/kg)≤14.7)
1 to 100 nM	L (L (Likely)”: ER≥2.5)	H (H (High permeability)”: A2B (B2A)>5)	Cc1n[nH]c2c1N=C(c1c(F)cccc1F)Nc1cnc(N3CCC(C)(C#N)CC3)cc1-2 [Example 17, 1-[8-(2,6-difluorophenyl)-5-methyl-3,4,7,9,12-pentazatricyclo[8.4.0.02,6]tetradeca-1(10),2(6),4,7,11,13-hexaen-13-y1]-4-methyl-piperidine-4-carbonitrile]	H (H (High permeability)”: A2B (B2A)>5)	I* (I (Intermediate Cl)”: 6.3≤Hep Cl (mL/min/kg)≤14.7)
< 1 nM	L (L (Likely)”: ER≥2.5)	H (H (High permeability)”: A2B (B2A)>5)	Cc1n[nH]c2c1N=C(c1c(F)cccc1F)Nc1c-2cc(N2CCN(CCCF)CC2)nc1C [Example 32, 8-(2,6-difluorophenyl)-13-[4-(3-fluoropropyl)piperazin-1-y1]-5,11-dimethyl-3,4,7,9,12-pentazatricyclo[8.4.0.02,6]tetradeca-1(10),2(6),4,7,11,13-hexaene]	M (M (Moderate permeability)”: 1≤A2B (B2A)≤5)	L* (L (Low Cl)”: Hep Cl (mL/min/kg)<6.3)
1 to 100 nM	L (L (Likely)”: ER≥2.5)	H (H (High permeability)”: A2B (B2A)>5)	Cc1n[nH]c2c1N=C(c1c(F)cccc1F)Nc1c-2cc(N2CCO[C@H]([C@@H](C)O)C2)nc1C [Example 45, (R)-1-((S)-4-(5-(2,6-difluorophenyl)-3,7-dimethyl-1,6-dihydropyrazolo[4,3-d]pyrido[4,3-f][1,3]diazepin-9-yl)morpholin-2-yl)ethan-1-ol]	L (L (Low permeability)”: A2B (B2A)<1)	L* (L (Low Cl)”: Hep Cl (mL/min/kg)<6.3)
< 1 nM	L (L (Likely)”: ER≥2.5)	H (H (High permeability)”: A2B (B2A)>5)	Cc1n[nH]c2c1N=C(c1c(F)cccc1F)Nc1c-2cc(N2CCS(=O)(=O)CC2)nc1C [Example 46, 4-(5-(2,6-difluorophenyl)-3,7-dimethyl-1,6-dihydropyrazolo[4,3-d]pyrido[4,3-f][1,3]diazepin-9-yl)thiomorpholine 1,1-dioxide]	L (L (Low permeability)”: A2B (B2A)<1)	L* (L (Low Cl)”: Hep Cl (mL/min/kg)<6.3)
1 to 100 nM	L (L (Likely)”: ER≥2.5)	H (H (High permeability)”: A2B (B2A)>5)	Cc1n[nH]c2c1N=C(c1c(F)cccc1F)Nc1cnc(N3CCC(C#N)CC3)cc1-2 [Example 48, 1-(5-(2,6-difluorophenyl)-3-methyl-1,6-dihydropyrazolo[4,3-d]pyrido[4,3-f][1,3]diazepin-9-yl)piperidine-4-carbonitrile]	M (M (Moderate permeability)”: 1≤A2B (B2A)≤5)	I* (I (Intermediate Cl)”: 6.3≤Hep Cl (mL/min/kg)≤14.7)

Structure (SMILES)	IC50 [1]	Caco-2 ER (Caco-2 cells)	Caco-2 B2A (10^−6 cm/s) (Caco-2 cells)	Caco-2 A2B (10^−6 cm/s) (Caco-2 cells)	hLM Cl (mL/min/kg) [2]
Cc1n[nH]c2c1N=C(c1c(F)cccc1F)Nc1c-2cc(N2CCOC3(COC3)C2)nc1C [Example 38, 8-(5-(2,6-difluorophenyl)-3,7-dimethyl-1,6-dihydropyrazolo[4,3-d]pyrido[4,3-f][1,3]diazepin-9-yl)-2,5-dioxa-8-azaspiro[3.5]nonane]	< 1 nM	L (L (Likely)”: ER≥2.5)	H (H (High permeability)”: A2B (B2A)>5)	M (M (Moderate permeability)”: 1≤A2B (B2A)≤5)	L* (L (Low Cl)”: Hep Cl (mL/min/kg)<6.3)
Cc1n[nH]c2c1N=C(c1c(F)cccc1F)Nc1cnc(N3CCC4(CC3)COC4)cc1-2 [Example 42, 7-(5-(2,6-difluorophenyl)-3-methyl-1,6-dihydropyrazolo[4,3-d]pyrido[4,3-f][1,3]diazepin-9-yl)-2-oxa-7-azaspiro[3.5]nonane]	1 to 100 nM	L (L (Likely)”: ER≥2.5)	H (H (High permeability)”: A2B (B2A)>5)	M (M (Moderate permeability)”: 1≤A2B (B2A)≤5)	L* (L (Low Cl)”: Hep Cl (mL/min/kg)<6.3)
Cc1nc(N2CC3(COC3)C2)cc2c1NC(c1c(F)cccc1F)=Nc1cn[nH]c1-2 [Example 43, 6-(5-(2,6-difluorophenyl)-7-methyl-1,6-dihydropyrazolo[4,3-d]pyrido[4,3-f][1,3]diazepin-9-y1)-2-oxa-6-azaspiro[3.3]heptane]	1 to 100 nM	L (L (Likely)”: ER≥2.5)	H (H (High permeability)”: A2B (B2A)>5)	M (M (Moderate permeability)”: 1≤A2B (B2A)≤5)	L* (L (Low Cl)”: Hep Cl (mL/min/kg)<6.3)
